# Measurements as given in patent US7338976B1, “Heterocyclic esters or amides for vision and memory disorders” (GPI NIL Holdings, Inc., priority 1998, dated 2008).
# Legend:
# [1] = tested on: RT97 + RGC axons; assay: Protection of retinal ganglion cell axons from degeneration following optic nerve transection (Table VIII); type: in vivo; details: ± SEM
# Text: Efficacy of representative compounds from different immunophilin ligand series in protecting retinal ganglion cell axons from degeneration following optic nerve transection is set forth in Table VIII
# [2] = tested on: retina (INL, GCL, ONL, OPL, PR); assay: Streptozotocin induced diabetes: retinal neovascularization and neuron loss; type: in vivo; details: 28 day treatment beginning 8 weeks after onset of streptozotocin diabetes
# [3] = tested on: retinal ganglion cells, optic nerve axons and myelin; assay: Retinal ischemia (intraocular pressure raised above arterial pressure), examined 28 days later; type: in vivo, adult rats
# Text: Retinal ganglion cells were retrogradely labeled in adult rats by bilateral injection of fluorogold in their lateral geniculate nuclei. Labeled ganglion cells in the normal rat retina appear as white profiles against the dark background (FIG. 1A). Complete retinal ischemia was produced by infusing normal saline solution into the retinal vitreous cavity of each eye until the intraocular pressure exceeded arterial blood pressure. 28 days after the ischemic episode extensive degeneration of retinal ganglion cell was evidenced by massive reduction in the density of fluorogold labeled cells (FIG. 1B).
# Optic nerves from vehicle treated cases examined 28 days after a 1 hour retinal ischemic episode are characterized by a decreased density of optic nerve axons and the appearance of numerous degenerating myelin figures (bright white filled circles).
# [4] = tested on: retinal ganglion cells and optic nerve axons; assay: Optic nerve transection vision loss model, 14 or 28 day treatment, sacrifice 90 days after transection; type: in vivo, Sprague Dawley rats; details: 28 days treatment; 90 days after ONT; cross sectional area × myelin density
# Text: All eyes and optic nerves stumps were removed.
# [5] = tested on: retinal ganglion cells and their axons; assay: Example 15: optic nerve transection, 28 days GPI-1046, sacrifice at 90 days; type: in vivo, Sprague Dawley rats; details: 10 mg/kg/day s.c. for 28 days; 90 days after transection; RT97
# Text: Transection of the mammalian optic nerve results in a brief period of abortive regeneration, but the majority of axotomized neurons die and the axons from many persisting ganglion cells die back beyond the optic nerve head.
# [6] = Clearance (Table VIII comments); type: in vitro ADME
SMILES,RT97 +RGC axon density 14 days after ON transection (% ON axons rescued) [1],other results
O=C(SCCCc1ccccc1)[C@@H]1CCCN1C(=O)NC12CC3CC(CC(C3)C1)C2 [B],100.0%±5.2% SEM,
O=C(SCCCc1ccccc1)[C@@H]1CCCN1S(=O)(=O)Cc1ccccc1 [C],60.4%±3.1% SEM,
"CCC(C)(C)C(=O)C(=O)N1CCC[C@H]1C(=O)OCCCc1cccnc1 [GPI 1046, 3-(3-pyridyl)-1-propyl (2s)-1-(3,3-dimethyl-1,2-dioxopentyl)-2-pyrrolidinecarboxylate]",60.5%±3.9 SEM,"neovascularization in PR, ONL, OPL and INL [2]: reduced neovascularization; protection of retinal ganglion cells after retinal ischemia ([3]; 10 mg/kg s.c. 1 hour prior and 10 mg/kg/day for next four days, 28 days after ischemia, fluorogold labeled cells): noticeable protection of a large proportion of the vulnerable ganglion cell population; protection of optic nerve axons after retinal ischemia ([3]; same cases, toluidine blue staining, 28 days after 1 hour ischemia): protected the majority of optic nerve exons from degeneration; Distal optic nerve myelin basic protein Density: myelin preservation [4]: ~99 % myelin preservation; preservation of axons in the proximal stump [5]: preserved the axons of virtually all protected neurons"
CCC(C)(C)C(=O)C(=O)N1CCCC[C@H]1C(=O)O [G],34.0%±4.8% SEM,
CCC(C)(C)C(=O)C(=O)N1CCCC[C@H]1C(N)=O [H],30.3%±8.0% SEM,
O=C(OCCCc1cccnc1)[C@@H]1CCCN1C(=S)NC1CCCCC1 [I],23.8%±5.3 SEM,
CCC(C)(C)C(=O)C(=O)N1CCC[C@H]1C(=O)CCCCc1cccnc1 [J],15.8%±4.8% SEM,
CCC(C)(C)C(=O)C(=O)N1CCC[C@H]1C(=O)O [L],7.8%±3.0% SEM,Clearance [6]: 12.5 µL/min
CCC(C)(C)C(=O)C(=O)N1CCC[C@H]1C(=O)SCCC(c1ccccc1)c1ccccc1 [M],−6.3%+3.9% SEM,
